Test results taken from ChEMBL document CHEMBL1201862, “PubChem BioAssay data set” (2004).
The source made the active and inactive calls.

How the values were obtained:
Coagulation factor XII = target: T1, Coagulation factor XII (Homo sapiens, UniProt P00748); assay type: functional;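 note: activated factor XIIa alpha cleaving a fluorogenic AMC peptide substrate; inhibitor potency from loss of enzyme activity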
T1 sequence (P00748 whole entry): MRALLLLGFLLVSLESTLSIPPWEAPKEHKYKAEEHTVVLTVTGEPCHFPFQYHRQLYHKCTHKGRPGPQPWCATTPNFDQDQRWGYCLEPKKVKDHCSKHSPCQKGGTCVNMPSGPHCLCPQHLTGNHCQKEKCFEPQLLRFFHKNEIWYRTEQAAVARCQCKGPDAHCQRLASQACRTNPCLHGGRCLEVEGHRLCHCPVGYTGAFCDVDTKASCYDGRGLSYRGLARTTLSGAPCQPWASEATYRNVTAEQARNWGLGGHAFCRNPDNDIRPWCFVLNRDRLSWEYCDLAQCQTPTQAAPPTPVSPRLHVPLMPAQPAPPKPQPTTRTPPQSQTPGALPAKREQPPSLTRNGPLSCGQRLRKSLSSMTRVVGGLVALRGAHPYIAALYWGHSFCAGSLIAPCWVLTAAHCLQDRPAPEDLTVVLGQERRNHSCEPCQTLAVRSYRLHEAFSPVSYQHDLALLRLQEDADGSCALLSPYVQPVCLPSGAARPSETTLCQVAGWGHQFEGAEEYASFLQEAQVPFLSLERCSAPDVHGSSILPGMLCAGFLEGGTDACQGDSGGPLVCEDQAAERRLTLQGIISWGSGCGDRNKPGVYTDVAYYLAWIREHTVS

[1] = target: Eukaryotic translation initiation factor 4E (Mus musculus, UniProt P63073); experiment: blockers of eIF4G binding by eIF4E – biochemical, TR-FRET, dose response (AID 855); assay type: functional;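 note: potency for disrupting eIF4E binding to eIF4GI seen as loss of FRET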
Sequence of Eukaryotic translation initiation factor 4E (P63073 whole entry): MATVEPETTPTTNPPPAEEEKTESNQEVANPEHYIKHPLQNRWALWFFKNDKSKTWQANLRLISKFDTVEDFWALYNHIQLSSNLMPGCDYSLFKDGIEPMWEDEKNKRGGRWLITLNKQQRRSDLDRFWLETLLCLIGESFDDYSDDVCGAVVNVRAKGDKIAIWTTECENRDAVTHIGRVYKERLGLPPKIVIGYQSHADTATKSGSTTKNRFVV

[2] = target: T2, Lysine-specific demethylase 4C (Homo sapiens, UniProt Q9H3R0); experiment: inhibition of JMJD2C H3K9me3 demethylation – biochemical, DELFIA europium, cherry-picked samples, dose response (AID 488835); assay type: functional
T2 sequence (Q9H3R0 whole entry): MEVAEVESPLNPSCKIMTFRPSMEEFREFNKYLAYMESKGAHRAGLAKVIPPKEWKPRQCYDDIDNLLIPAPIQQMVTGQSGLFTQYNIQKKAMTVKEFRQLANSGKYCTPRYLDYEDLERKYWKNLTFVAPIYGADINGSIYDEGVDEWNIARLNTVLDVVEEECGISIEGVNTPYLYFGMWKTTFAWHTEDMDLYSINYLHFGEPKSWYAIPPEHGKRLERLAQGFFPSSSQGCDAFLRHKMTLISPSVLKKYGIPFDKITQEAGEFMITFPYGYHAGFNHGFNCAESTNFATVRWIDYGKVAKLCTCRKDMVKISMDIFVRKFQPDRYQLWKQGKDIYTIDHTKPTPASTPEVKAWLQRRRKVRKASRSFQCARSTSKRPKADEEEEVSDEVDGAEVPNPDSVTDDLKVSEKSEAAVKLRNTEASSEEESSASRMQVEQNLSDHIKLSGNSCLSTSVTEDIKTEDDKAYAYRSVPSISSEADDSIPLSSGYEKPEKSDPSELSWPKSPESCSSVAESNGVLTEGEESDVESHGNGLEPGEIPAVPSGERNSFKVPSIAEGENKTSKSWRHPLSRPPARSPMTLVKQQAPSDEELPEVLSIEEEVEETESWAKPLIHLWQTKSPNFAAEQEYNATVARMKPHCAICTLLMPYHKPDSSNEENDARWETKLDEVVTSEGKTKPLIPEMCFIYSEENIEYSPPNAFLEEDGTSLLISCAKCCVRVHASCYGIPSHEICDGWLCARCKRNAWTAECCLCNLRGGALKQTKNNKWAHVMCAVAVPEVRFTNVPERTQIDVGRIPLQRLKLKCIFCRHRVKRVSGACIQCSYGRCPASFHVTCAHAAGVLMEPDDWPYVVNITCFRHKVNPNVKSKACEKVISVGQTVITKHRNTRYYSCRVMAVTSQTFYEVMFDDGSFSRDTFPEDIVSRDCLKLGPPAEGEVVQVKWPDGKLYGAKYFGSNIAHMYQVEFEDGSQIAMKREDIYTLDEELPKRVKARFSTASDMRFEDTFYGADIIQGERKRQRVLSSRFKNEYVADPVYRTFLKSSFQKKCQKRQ

[3] = target: T3, RNA-binding protein pos-1 (Caenorhabditis elegans, UniProt G5EF15); experiment: disruptors of C. elegans POS-1 RNA interaction – biochemical, fluorescence polarization, dose response (AID 1964);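 note: purified POS-1 fused to maltose binding protein made in E. coli; potency of compounds blocking POS-1 binding to fluorescent RNA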
T3 sequence (G5EF15 whole entry): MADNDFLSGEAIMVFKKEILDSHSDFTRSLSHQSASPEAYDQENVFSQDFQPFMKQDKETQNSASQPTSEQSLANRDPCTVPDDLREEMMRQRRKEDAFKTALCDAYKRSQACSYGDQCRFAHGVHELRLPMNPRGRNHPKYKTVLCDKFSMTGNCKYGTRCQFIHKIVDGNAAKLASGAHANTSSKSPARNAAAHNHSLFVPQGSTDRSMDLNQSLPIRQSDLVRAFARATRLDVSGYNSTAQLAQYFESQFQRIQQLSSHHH

[4] = target: T4, Zinc finger protein mex-5 (Caenorhabditis elegans, UniProt Q9XUB2); experiment: potency of MEX-5 RNA-binding blockers – biochemical, C. elegans, fluorescence polarization, dose response (AID 1960)
T4 sequence (Q9XUB2 whole entry): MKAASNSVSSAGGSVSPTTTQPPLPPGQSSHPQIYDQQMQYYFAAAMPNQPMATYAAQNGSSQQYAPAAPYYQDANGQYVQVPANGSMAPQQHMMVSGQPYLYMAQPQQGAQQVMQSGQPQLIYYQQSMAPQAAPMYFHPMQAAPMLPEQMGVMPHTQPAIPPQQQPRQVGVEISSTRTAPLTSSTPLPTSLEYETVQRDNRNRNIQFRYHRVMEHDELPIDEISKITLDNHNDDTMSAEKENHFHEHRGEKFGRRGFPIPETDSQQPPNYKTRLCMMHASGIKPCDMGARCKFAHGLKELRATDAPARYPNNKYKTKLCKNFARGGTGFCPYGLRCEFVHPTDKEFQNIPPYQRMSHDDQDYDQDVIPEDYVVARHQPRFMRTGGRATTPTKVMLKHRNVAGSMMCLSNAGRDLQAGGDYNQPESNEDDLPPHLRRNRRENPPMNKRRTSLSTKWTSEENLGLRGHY

[5] = target: Alkaline phosphatase, placental type (Homo sapiens, UniProt P05187); experiment: human placental alkaline phosphatase inhibition – biochemical, luminescence, confirmation (AID 1512); assay type: functional
Sequence of Alkaline phosphatase, placental type (P05187 whole entry): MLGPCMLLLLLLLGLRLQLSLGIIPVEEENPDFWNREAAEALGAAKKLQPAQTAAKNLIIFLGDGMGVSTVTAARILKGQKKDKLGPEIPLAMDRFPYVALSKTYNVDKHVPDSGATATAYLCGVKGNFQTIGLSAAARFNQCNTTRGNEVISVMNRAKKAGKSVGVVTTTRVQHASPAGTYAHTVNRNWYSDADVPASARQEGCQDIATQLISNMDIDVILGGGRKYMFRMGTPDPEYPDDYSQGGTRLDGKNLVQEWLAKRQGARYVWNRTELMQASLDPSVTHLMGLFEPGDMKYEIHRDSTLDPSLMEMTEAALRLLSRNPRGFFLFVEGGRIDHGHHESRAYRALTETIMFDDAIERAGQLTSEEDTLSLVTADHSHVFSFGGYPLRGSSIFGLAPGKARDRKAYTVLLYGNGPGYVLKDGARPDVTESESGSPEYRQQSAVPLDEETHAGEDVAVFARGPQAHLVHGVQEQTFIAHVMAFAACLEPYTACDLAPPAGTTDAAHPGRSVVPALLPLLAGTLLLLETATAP

[6] = decrease of insulin promoter-GFP reporter – imaging, high-content screening, mouse beta cells (AID 1628); assay type: functional; settings: MIN6
[7] = MIN6 cell viability loss – mouse insulinoma, cytotoxicity control, dose response (AID 2122); assay type: functional;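 note: confirmatory high-throughput counterscreen run to flag cytotoxic compounds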
INS1 = experiment: INS-1E survival protection against cytokine death – cell-based, luminescence, retest, dose response (AID 449756); assay type: functional; settings: Rattus norvegicus;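 note: cell death triggered by IL-1 beta plus TNF-alpha plus IFN-gamma mixture; protective hits raise ATP signal compared with cytokine alone wells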
HEK293 [8] = experiment: cells; assay type: functional, cell-based; settings: Homo sapiens
Genome polyprotein = Genome polyprotein (dengue virus type 2, UniProt P29990); experiment: flavivirus cap methylation enzyme inhibition – biochemical, confirmation dose response, primary screen (AID 588689); assay type: functional
Sequence of Genome polyprotein (P29990 2492-3391 limits assumed): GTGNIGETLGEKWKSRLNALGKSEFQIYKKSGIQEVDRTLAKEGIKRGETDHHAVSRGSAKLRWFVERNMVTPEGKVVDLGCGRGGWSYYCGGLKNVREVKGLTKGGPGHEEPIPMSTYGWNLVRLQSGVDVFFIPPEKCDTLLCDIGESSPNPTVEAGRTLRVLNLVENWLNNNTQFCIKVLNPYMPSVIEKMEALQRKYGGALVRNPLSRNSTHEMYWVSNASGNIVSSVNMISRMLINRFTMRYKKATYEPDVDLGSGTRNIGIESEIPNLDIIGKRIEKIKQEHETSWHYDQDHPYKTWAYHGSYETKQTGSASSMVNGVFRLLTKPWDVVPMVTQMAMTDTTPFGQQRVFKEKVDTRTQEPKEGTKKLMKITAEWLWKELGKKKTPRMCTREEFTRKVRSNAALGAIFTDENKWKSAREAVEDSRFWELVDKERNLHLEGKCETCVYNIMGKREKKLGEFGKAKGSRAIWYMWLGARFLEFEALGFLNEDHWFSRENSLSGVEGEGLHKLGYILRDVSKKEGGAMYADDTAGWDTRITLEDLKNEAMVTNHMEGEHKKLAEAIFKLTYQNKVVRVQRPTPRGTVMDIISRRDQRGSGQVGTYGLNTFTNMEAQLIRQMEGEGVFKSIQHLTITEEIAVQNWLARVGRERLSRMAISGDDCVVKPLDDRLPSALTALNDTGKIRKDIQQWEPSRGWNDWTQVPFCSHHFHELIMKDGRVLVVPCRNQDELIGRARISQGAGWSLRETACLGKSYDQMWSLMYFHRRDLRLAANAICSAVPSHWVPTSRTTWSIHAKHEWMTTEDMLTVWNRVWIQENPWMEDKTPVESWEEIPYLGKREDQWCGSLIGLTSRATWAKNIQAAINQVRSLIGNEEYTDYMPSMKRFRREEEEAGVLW

[9] = target: T5, Nuclear receptor subfamily 0 group B member 1 (Homo sapiens, UniProt P51843); experiment: Luminescence-based cell-based high throughput dose response assay for inhibitors of the orphan nuclear receptor subfamily 0, group B, member 1 (DAX1; NR0B1). [Related pubchem assays (depositor defined):AID504766, AID504790]; assay type: functional
T5 sequence (P51843 whole entry): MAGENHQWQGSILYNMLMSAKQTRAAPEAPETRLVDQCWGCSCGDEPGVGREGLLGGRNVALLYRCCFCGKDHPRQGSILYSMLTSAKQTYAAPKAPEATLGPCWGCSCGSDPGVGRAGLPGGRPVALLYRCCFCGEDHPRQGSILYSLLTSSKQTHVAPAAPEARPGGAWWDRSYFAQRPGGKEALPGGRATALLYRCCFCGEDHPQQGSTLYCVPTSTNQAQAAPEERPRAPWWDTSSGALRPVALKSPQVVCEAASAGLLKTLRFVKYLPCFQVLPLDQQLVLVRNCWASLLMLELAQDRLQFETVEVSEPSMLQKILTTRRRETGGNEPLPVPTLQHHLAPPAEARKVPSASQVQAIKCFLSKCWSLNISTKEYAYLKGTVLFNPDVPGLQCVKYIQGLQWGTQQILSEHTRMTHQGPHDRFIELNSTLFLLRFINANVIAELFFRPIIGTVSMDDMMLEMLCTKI

HEK293 [10] = experiment: inhibition of NOD1-driven NF-kB reporter – cell-based, luminescence, uHTS, primary screen (AID 1578); assay type: functional; settings: Homo sapiens
HEK293 [11] = experiment: cells; assay type: functional, cell-based; settings: Homo sapiens; remark: listed apart in the source
HEK293 [12] = experiment: cells; assay type: functional, cell-based; settings: Homo sapiens; remark: listed apart in the source
HEK293 [13] = experiment: NOD2 signaling inhibitors in MDP-stimulated cells, cell-based, uHTS, luminescence (AID 2001); assay type: functional; settings: Homo sapiens
[14] = reduction of Shn3 3'UTR-driven luciferase in osteoblasts – cell-based, Clone20 osteoblasts, firefly luciferase, cherry-picked, dose response (AID 624132); assay type: functional;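 note: firefly luciferase luminescence from reporter carrying the Shn3 3'UTR in osteoblasts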
[15] = loss of viability in HepG2 cells – cell-based, CellTiter-Glo, cherry-picked, cytotoxicity control for Shn3 inhibitor project, dose response (AID 624134); assay type: functional
[16] = non-specific 3'UTR reporter inhibition in Clone20-Shn3RL – cell-based, Renilla luciferase, cherry-picked, counter-screen for Shn3 inhibitor project, dose response (AID 624133); assay type: functional
CAAX prenyl protease 2 = target: T6, CAAX prenyl protease 2 (Homo sapiens, UniProt Q9Y256); experiment: inhibition of Ras-converting CAAX protease Rce1 – biochemical, yeast membranes, quenched-peptide fluorescence, cherry-pick, dose response (AID 588849)
T6 sequence (Q9Y256 whole entry): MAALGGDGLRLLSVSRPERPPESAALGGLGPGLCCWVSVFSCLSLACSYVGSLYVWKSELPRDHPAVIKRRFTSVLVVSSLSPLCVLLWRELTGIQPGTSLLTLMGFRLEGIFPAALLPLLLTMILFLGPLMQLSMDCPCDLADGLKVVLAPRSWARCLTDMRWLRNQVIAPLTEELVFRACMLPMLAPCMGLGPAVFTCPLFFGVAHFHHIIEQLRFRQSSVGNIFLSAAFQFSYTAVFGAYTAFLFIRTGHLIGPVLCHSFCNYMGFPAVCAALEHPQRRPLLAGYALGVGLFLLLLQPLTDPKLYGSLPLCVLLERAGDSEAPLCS

Trypsin = Trypsin (Sus scrofa, UniProt P00761); experiment: trypsin protease activity blockade – biochemical, quenched peptide fluorescence, cherry-pick, selectivity assay for Rce1 protease inhibitor project, dose response (AID 488789)
Sequence of Trypsin (P00761 whole entry): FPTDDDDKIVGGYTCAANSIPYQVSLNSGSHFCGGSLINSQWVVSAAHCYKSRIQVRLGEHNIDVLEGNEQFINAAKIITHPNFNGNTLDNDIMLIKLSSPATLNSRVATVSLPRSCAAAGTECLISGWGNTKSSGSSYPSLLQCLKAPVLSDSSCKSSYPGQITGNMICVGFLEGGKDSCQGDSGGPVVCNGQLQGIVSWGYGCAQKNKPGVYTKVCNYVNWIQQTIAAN

Structure (SMILES): Cc1ccn(CC(=O)O)c(=O)c1
- IC50 (Coagulation factor XII): > 50 µM (inactive)

Structure (SMILES): COc1ccc(CC2C(=O)NC(=O)N(c3ccccc3)C2=O)c(OC)c1 (centres undefined)
- IC50 [1]: > 64 µM (inactive)
- AC50 [2]: 7.62 µM (active)

Structure (SMILES): CCOCCCNC(=O)CCC(=O)NNc1nc2ccccc2c2nc(C)nn12
- EC50 [3]: > 300 µM (not active)
- EC50 [4]: 1.45 µM (active)
- IC50 [5]: > 100 µM (inactive)

Structure (SMILES): COc1ccc(CNCC(=O)Nc2sccc2C#N)cc1
- AC50 [2]: 25 µM (active)

Structure (SMILES): O=[N+]([O-])c1ccc(N2CCN(C(S)=NCc3ccc(Cl)cc3)CC2)cc1
- IC50 [6]: 1.85 µM (active)
- IC50 [7]: 2.83 µM (active)
- AC50 (INS1): 6.14 µM (active)

Structure (SMILES): CCOc1cc(/C=C2\C(=O)NC(=O)N(C)C2=O)cc([N+](=O)[O-])c1O
- IC50 (HEK293 [8]): 51.7 µM (inactive)
- IC50 (Genome polyprotein): 19.9 µM (active)
- IC50 [9]: > 67.5 µM (inactive)

Structure (SMILES): CCN(CC)N=Nc1cccc(NC(C)=O)c1
- IC50 (HEK293 [8]): > 67.5 µM (inactive)
- IC50 [9]: > 67.5 µM (inactive)

Structure (SMILES): CCOc1cc(C=C2C(=O)NC(=O)NC2=O)cc([N+](=O)[O-])c1O
- AC50 [2]: 2.49 µM (active)

Structure (SMILES): Cc1ccc(NC(=O)CCn2cccc2)cc1C
- IC50 (Coagulation factor XII): > 50 µM (inactive)

Structure (SMILES): CCN1CCN(Cc2ccc(NC(=O)c3ccc(C)c(NC(=O)C(=O)c4c[nH]c5ccccc45)c3)cc2C(F)(F)F)CC1
- EC50 (HEK293 [10]): 17.2 µM (active)
- IC50 [6]: 2.15 µM (active)
- IC50 (HEK293 [11]): 4.96 µM (active)
- IC50 [7]: 1.09 µM (active)
- IC50 (HEK293 [12]): 18.5 µM (active)
- IC50 (HEK293 [13]): 13.1 µM (inactive)
- AC50 [14]: 7.49 µM (active)
- AC50 [15]: 9.8 µM (active)
- AC50 [16]: 3.42 µM (active)

Structure (SMILES): O=C(O)c1ccc(N/N=C/c2ccc(-c3ccccc3Cl)o2)cc1
- AC50 (CAAX prenyl protease 2): 54.5 µM (active)

Structure (SMILES): NS(=O)(=O)c1ccc(CCNC(=O)c2ccc3ccccc3n2)cc1
- AC50 (Trypsin): 4.75 µM (active)
- AC50 (CAAX prenyl protease 2): 4.74 µM (active)
